Measurements published in patent US7652005B2, “Tricyclic δ-opioid modulators” (Janssen Pharmaceutica N.V., priority 2004, dated 2010).

Target: T1, delta opioid receptor (Rattus norvegicus, UniProt P33533)
T1 construct: from tissue; host or cells: rat forebrain homogenate (male Wistar rats), particulate membrane preparation
Test: Rat Brain Delta Opioid Receptor Binding Assay
Conditions: rat forebrain membrane preparation; [3H]DPDPE or [3H]naltrindole, 25° C., 2.5 h

T1 sequence (P33533 whole entry): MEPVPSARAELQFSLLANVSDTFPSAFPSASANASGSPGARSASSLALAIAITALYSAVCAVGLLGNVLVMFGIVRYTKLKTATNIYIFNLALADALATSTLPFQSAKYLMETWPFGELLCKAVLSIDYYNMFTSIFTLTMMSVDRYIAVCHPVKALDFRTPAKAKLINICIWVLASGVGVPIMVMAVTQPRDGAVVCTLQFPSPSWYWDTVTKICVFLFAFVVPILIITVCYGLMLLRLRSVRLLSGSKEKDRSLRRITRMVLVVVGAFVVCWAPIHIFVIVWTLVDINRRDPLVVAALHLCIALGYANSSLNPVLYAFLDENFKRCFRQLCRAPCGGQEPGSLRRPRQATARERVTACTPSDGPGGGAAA

`Oc1cccc2c1Oc1cc(-c3ccncc3)ccc1N2[C@H]1C[C@H]2CC[C@@H](C1)N2CCc1ccccc1` [Compound 10v, Endo-10-(8-Phenethyl-8-aza-bicyclo[3.2.1]oct-3-yl)-7-pyridin-4-yl-10H-phenoxazin-4-ol] and `COc1cccc2c1Oc1cc(-c3ccncc3)ccc1N2[C@H]1C[C@H]2CC[C@@H](C1)N2CCc1ccccc1` [Compound 13v, Endo-6-Methoxy-10-(8-phenethyl-8-aza-bicyclo[3.2.1]oct-3-yl)-3-pyridin-4-yl-10H-phenoxazine] cannot be ordered by Ki: over 10000 nM for the first, over 10000 nM for the second.

First: c1ccc(CCN2[C@@H]3CC[C@H]2C[C@H](N2c4ccccc4Oc4cc(-c5cccnc5)ccc42)C3)cc1 [Compound 4l, Exo-10-(8-Phenethyl-8-aza-bicyclo[3.2.1]oct-3-yl)-3-pyridin-3-yl-10H-phenoxazine]
Second: c1ccc(CCN2[C@@H]3CC[C@H]2C[C@@H](N2c4ccccc4Oc4cc(-c5cccnc5)ccc42)C3)cc1 [Compound 6j, Endo-10-(8-Phenethyl-8-aza-bicyclo[3.2.1]oct-3-yl)-3-pyridin-3-yl-10H-phenoxazine]
The Ki of the first is 7.7-fold lower: 425 nM for the first, 3260 nM for the second.

First: CCN(CC)C(=O)c1ccc2c(c1)Oc1ccccc1N2[C@H]1C[C@H]2CC[C@@H](C1)N2CCc1ccccc1 [Compound 6t, Endo-10-(8-Phenethyl-8-aza-bicyclo[3.2.1]oct-3-yl)-10H-phenoxazine-3-carboxylic acid diethylamide]
Second: CCN(CC)C(=O)c1ccc2c(c1)Oc1ccccc1N2[C@@H]1C[C@H]2CC[C@@H](C1)N2CCc1ccccc1 [Compound 3u, Exo-10-(8-Phenethyl-8-aza-bicyclo[3.2.1]oct-3-yl)-10H-phenoxazine-3-carboxylic acid diethylamide]
The Ki of the first is 5.9-fold lower: 231 nM for the first, 1360 nM for the second.

First: c1ccc2c(c1)Oc1cc(-c3ccncc3)ccc1N2[C@@H]1C[C@H]2CC[C@@H](C1)N2Cc1ccoc1 [Compound 5m, Exo-10-(8-Furan-3-ylmethyl-8-aza-bicyclo[3.2.1]oct-3-yl)-3-pyridin-4-yl-10H-phenoxazine]
Second: c1ccc2c(c1)Oc1cc(-c3ccncc3)ccc1N2[C@H]1C[C@H]2CC[C@@H](C1)N2Cc1ccoc1 [Compound 5k, Endo-10-(8-Furan-3-ylmethyl-8-aza-bicyclo[3.2.1]oct-3-yl)-3-pyridin-4-yl-10H-phenoxazine]
The Ki of the first is 5.2-fold higher: 1280 nM for the first, 247 nM for the second. The second binds more tightly here.

First: CC(=O)Nc1ccccc1-c1ccc2c(c1)Sc1ccccc1N2C1C[C@H]2CC[C@@H](C1)N2C (mixture of isomers) [Compound 16i, N-{2-[10-(8-Methyl-8-aza-bicyclo[3.2.1]oct-3-yl)-10H-phenothiazin-3-yl]-phenyl}-acetamide]
Second: CC(=O)Nc1ccccc1-c1ccc2c(c1)Sc1ccccc1N2C1C[C@H]2CC[C@@H](C1)N2Cc1ccoc1 (mixture of isomers) [Compound 7i, N-{2-[10-(8-Furan-3-ylmethyl-8-aza-bicyclo[3.2.1]oct-3-yl)-10H-phenothiazin-3-yl]-phenyl}-acetamide]
The Ki of the first is 12-fold higher: 1450 nM for the first, 123 nM for the second.

`c1ccc2c(c1)Oc1cc(-c3ccncc3)ccc1N2[C@H]1C[C@H]2CC[C@@H](C1)N2` [Compound 2k, Endo-10-(8-Aza-bicyclo[3.2.1]oct-3-yl)-3-pyridin-4-yl-10H-phenoxazine] and `c1ccc2c(c1)Oc1cc(-c3ccncc3)ccc1N2[C@@H]1C[C@H]2CC[C@@H](C1)N2` [Compound 2m, Exo-10-(8-Aza-bicyclo[3.2.1]oct-3-yl)-3-pyridin-4-yl-10H-phenoxazine] are within 1.5-fold of each other in Ki: 696 nM for the first, 634 nM for the second.

First: CC(C)=CCN1[C@@H]2CC[C@H]1CC(N1c3ccccc3Sc3cc(-c4cccnc4)ccc31)C2 (mixture of isomers) [Compound 8i, 10-[8-(3-Methyl-but-2-enyl)-8-aza-bicyclo[3.2.1]oct-3-yl]-3-pyridin-3-yl-10H-phenothiazine]
Second: c1cncc(-c2ccc3c(c2)Oc2ccccc2N3[C@H]2C[C@H]3CC[C@@H](C2)N3Cc2cccs2)c1 [Compound 9j, Endo-3-Pyridin-3-yl-10-(8-thiophen-2-ylmethyl-8-aza-bicyclo[3.2.1]oct-3-yl)-10H-phenoxazine]
The Ki of the first is 27-fold lower: 444 nM for the first, 11900 nM for the second. The first binds more tightly here.

Compared with `c1ccc(CCN2[C@@H]3CC[C@H]2C[C@H](N2c4ccccc4Oc4cc(-c5ccncc5)ccc42)C3)cc1` [Compound 3m, Exo-10-(8-Phenethyl-8-aza-bicyclo[3.2.1]oct-3-yl)-3-pyridin-4-yl-10H-phenoxazine], `c1ccc(CCN2[C@@H]3CC[C@H]2C[C@@H](N2c4ccccc4Oc4cc(-c5ccncc5)ccc42)C3)cc1` [Compound 3k, Endo-10-(8-Phenethyl-8-aza-bicyclo[3.2.1]oct-3-yl)-3-pyridin-4-yl-10H-phenoxazine] is 7.1-fold higher in Ki: 480 nM for the first, 3390 nM for the second.

Going from `c1csc(CN2[C@@H]3CC[C@H]2C[C@@H](N2c4ccccc4Oc4cc(-c5ccncc5)ccc42)C3)c1` [Compound 6k, Endo-3-Pyridin-4-yl-10-(8-thiophen-2-ylmethyl-8-aza-bicyclo[3.2.1]oct-3-yl)-10H-phenoxazine] to `c1ccc(CN2[C@@H]3CC[C@H]2C[C@H](N2c4ccccc4Oc4cc(-c5ccncc5)ccc42)C3)nc1` [Compound 4m, Exo-3-Pyridin-4-yl-10-(8-pyridin-2-ylmethyl-8-aza-bicyclo[3.2.1]oct-3-yl)-10H-phenoxazine], the Ki falls from 14200 nM to 869 nM (16-fold).

Going from `c1ccc(CN2[C@@H]3CC[C@H]2C[C@@H](N2c4ccccc4Oc4cc(-c5cccnc5)ccc42)C3)nc1` [Compound 7j, Endo-3-Pyridin-3-yl-10-(8-pyridin-2-ylmethyl-8-aza-bicyclo[3.2.1]oct-3-yl)-10H-phenoxazine] to `c1ccc(CN2[C@@H]3CC[C@H]2C[C@H](N2c4ccccc4Oc4cc(-c5cccnc5)ccc42)C3)nc1` [Compound 5l, Exo-3-Pyridin-3-yl-10-(8-pyridin-2-ylmethyl-8-aza-bicyclo[3.2.1]oct-3-yl)-10H-phenoxazine], the Ki rises from 104 nM to 539 nM (5.2-fold).

`N#Cc1ccc2c(c1)Sc1ccccc1N2C1C[C@H]2CC[C@@H](C1)N2` (mixture of isomers) [Compound 1aa, 10-(8-Aza-bicyclo[3.2.1]oct-3-yl)-10H-phenothiazine-3-carbonitrile] and `c1cncc(-c2ccc3c(c2)Oc2ccccc2N3[C@@H]2C[C@H]3CC[C@@H](C2)N3)c1` [Compound 3l] are within 1.5-fold of each other in Ki: 931 nM for the first, 729 nM for the second.

Going from `CC(=O)Nc1ccccc1-c1ccc2c(c1)Oc1ccccc1N2[C@H]1C[C@H]2CC[C@@H](C1)N2CCc1ccccc1` [Compound 3x, Endo-N-{2-[10-(8-Phenethyl-8-aza-bicyclo[3.2.1]oct-3-yl)-10H-phenoxazin-3-yl]-phenyl}-acetamide] to `CC(=O)Nc1ccccc1-c1ccc2c(c1)Oc1ccccc1N2[C@H]1C[C@H]2CC[C@@H](C1)N2Cc1cccs1` [Compound 4x, Endo-N-{2-[10-(8-Thiophen-2-ylmethyl-8-aza-bicyclo[3.2.1]oct-3-yl)-10H-phenoxazin-3-yl]-phenyl}-acetamide], the Ki falls from 1590 nM to 161 nM (9.9-fold).

`c1cncc(-c2ccc3c(c2)Oc2ccccc2N3[C@H]2C[C@H]3CC[C@@H](C2)N3)c1` [Compound 5j, Endo-10-(8-Aza-bicyclo[3.2.1]oct-3-yl)-3-pyridin-3-yl-10H-phenoxazine] and `c1ccc(CN2[C@@H]3CC[C@H]2C[C@@H](N2c4ccccc4Oc4cc(-c5ccncc5)ccc42)C3)nc1` [Compound 4k, Endo-3-Pyridin-4-yl-10-(8-pyridin-2-ylmethyl-8-aza-bicyclo[3.2.1]oct-3-yl)-10H-phenoxazine] are within 1.5-fold of each other in Ki: 409 nM for the first, 445 nM for the second.

Target: T2, mu opioid receptor (Rattus norvegicus, UniProt P33535)
T2 construct: Following incubation with the mu selective peptide ligand, ˜0.8 nM [^3H]DAMGO; from tissue; host or cells: rat forebrain homogenate (male Wistar rats), particulate membrane preparation
Test: Rat Brain Mu Opioid Receptor Binding Assay
Conditions: rat forebrain membrane preparation; [3H]DAMGO, 25° C., 2.5 h

T2 sequence (P33535 whole entry): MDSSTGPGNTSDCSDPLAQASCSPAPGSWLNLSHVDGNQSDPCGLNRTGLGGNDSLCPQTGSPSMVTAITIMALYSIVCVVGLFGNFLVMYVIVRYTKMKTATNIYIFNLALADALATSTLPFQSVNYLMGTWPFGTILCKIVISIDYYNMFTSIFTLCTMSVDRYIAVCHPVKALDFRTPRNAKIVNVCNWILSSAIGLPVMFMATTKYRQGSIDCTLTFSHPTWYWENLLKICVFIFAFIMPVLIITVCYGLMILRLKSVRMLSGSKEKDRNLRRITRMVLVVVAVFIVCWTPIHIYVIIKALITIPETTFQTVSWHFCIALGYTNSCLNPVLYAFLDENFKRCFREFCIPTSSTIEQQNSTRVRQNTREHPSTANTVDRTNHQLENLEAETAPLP

In order of falling Ki:
1. CC(=O)Nc1ccccc1-c1ccc2c(c1)Sc1ccccc1N2C1C[C@H]2CC[C@@H](C1)N2C (mixture of isomers) [Compound 16i, N-{2-[10-(8-Methyl-8-aza-bicyclo[3.2.1]oct-3-yl)-10H-phenothiazin-3-yl]-phenyl}-acetamide]  2650 nM
2. CC(C)=CCN1[C@@H]2CC[C@H]1CC(N1c3ccccc3Sc3cc(-c4cccnc4)ccc31)C2 (mixture of isomers) [Compound 8i, 10-[8-(3-Methyl-but-2-enyl)-8-aza-bicyclo[3.2.1]oct-3-yl]-3-pyridin-3-yl-10H-phenothiazine]  889 nM
3. CC(=O)Nc1ccccc1-c1ccc2c(c1)Sc1ccccc1N2C1C[C@H]2CC[C@@H](C1)N2Cc1ccoc1 (mixture of isomers) [Compound 7i, N-{2-[10-(8-Furan-3-ylmethyl-8-aza-bicyclo[3.2.1]oct-3-yl)-10H-phenothiazin-3-yl]-phenyl}-acetamide]  554 nM
